# Results published in patent US20190030046A1, “USE OF PURE COMPOUNDS EXTRACTED FROM ANTRODIA CAMPHORATA” (priority 2016, published 2019).
# Tests used:
# [1] = system: phospho-Akt(Ser473)/total-Akt(Ser473); test: phospho-Akt(Ser473)/total-Akt in C2C12 myotube cells (Western blot); type: cell-based; settings: TT 10 and 25 μg/mL, 25 min
# Protocol: In the present invention, C2C12 skeletal myoblasts (ATCC, CRL-1772) were maintained in growth media consisting of Dulbecco's modified Eagle's medium (DMEM) (Gibco BRL) and supplemented with 10% Fetal Bovine Serum (FBS) (Hyclone) and 100 U/mL penicillin/100 μg/mL streptomycin (Gibco BRL), and split 1:4 using 0.05% trypsin when 80% confluent. Myoblasts were diluted and placed in a 9 cm-diameter dish. Cells were cultured to achieve 80%-90% confluency and then the growth media was changed as 2% FBS/DMEM every 24 h for 5-7 days.
# In experiments for determining GLUT4 and p-Akt(Ser473)/t-Akt proteins in tubes, differentiated C2C12 cells were serum-starved in DMEM/BSA for 2 h at 37° C. prior to incubation with MeOH crude extract (at 20, 100, 200, and 500 μg/mL), test compounds (at 1, 5, 10, and 25 μg/mL), or vehicle for 25 min, or 100 nM insulin for 25 min.
# The cultures obtained by cell culture above were centrifuged, and the resulting pellet was resuspended in a homogenization buffer. The forgoing steps were performed with a filtration membrane. Protein concentrations were measured using a BCA assay (Pierce). Equal amounts of protein were diluted four times in SDS sample buffer, and subjected to SDS PAGE and Western blotting with antibodies specific for Akt, p-Akt Ser^473, and GLUT4. Density blotting analysis was performed using Alpha Easy FC software.
# C2C12 myoblasts = test: MTT test; type: cell-based; settings: dose of 1 to 25 μg/mL
# [2] = HFD-induced diabetic mice: liver lipids; type: in vivo, C57BL/6J mice; settings: 4 weeks
# G6-Pase = test: Semiquantitative RT-PCR in liver tissue: G6-Pase; type: in vivo, C57BL/6J mice; settings: vs HF, 4 weeks
# Protocol: (§1) The difference indicates the daily food intake.
# (§2) Total RNA from liver tissue was isolated with a Trizol Reagent (Molecular Research Center, Inc., Cincinnati, Ohio, USA) according to the manufacturer's instructions. The integrity of the extracted total RNA was examined by 2% agarose gel electrophoresis, and the RNA concentration was determined by […] ultraviolet (UV) light absorbency at 260 nm and 280 nm (Spectrophotometer U-2800A, Hitachi). The total RNA (1 μg) was reverse transcribed to cDNA, and 5 μL Moloney murine leukemia virus reverse transcriptase (TEpicentre, Madison, Wis., USA). The PCR was performed in a final 25 μL containing 1 U Blend Taq-Plus (TOYOBO, Japan), 10 μL of the RT cDNA product, 10 μM of each forward (F) and reverse (R) primer, 75 mM Tris-HCL (pH 8.3) containing 1 mg/L Tween 20 (pH 8.3, also known as polyoxyethylene sorbitan monolaurate), 2.5 mM dNTP (deoxy-ribonucleoside triphosphate), and 2 mM MgCl2 (magnesium chloride). The PCR products were analyzed by 2% agarose gel and stained with ethidium bromide.
# 11β-HSD1 = test: Semiquantitative RT-PCR in liver tissue: 11β-HSD1; type: in vivo, C57BL/6J mice; settings: vs HF, 4 weeks
# Protocol: as §1, §2
# GPAT = test: Semiquantitative RT-PCR in liver tissue: GPAT; type: in vivo, C57BL/6J mice; settings: vs HF, 4 weeks
# Protocol: as §1, §2
# UCP3 = test: Semiquantitative RT-PCR in liver tissue: UCP3; type: in vivo, C57BL/6J mice; settings: vs HF, 4 weeks
# Protocol: as §1, §2
# membrane GLUT4 = test: Western blot of skeletal muscle membrane GLUT4 in HFD mice; settings: compared to HF, 4 weeks
# Protocol: The HFD mice were subdivided into 6 groups (9 per group) followed by 8-week induction. […] Following four-week treatment and feeding, the food was removed, and the mice were fasted for 12 h and then sacrificed. Tissue samples required were collected from the mice and weighted. Some of the tissue samples were immediately stored at −80° C. and frozen for subsequent target gene analysis. Plasma samples were collected via centrifugation of whole blood at 1600×g for 15 min at 4° C., followed by plasma separation within 30 min.
# We determined PPARα and FAS protein expression levels in liver tissue, PPARγ and FAS protein expression levels in adipose tissue, and membrane GLUT4 expression in skeletal muscle adipose. The total membrane fraction was collected with the buffer and determined as previously described. The membrane GLUT4, p-AMPK, and total AMPK protein content were determined by Western Blotting as previously described.
# [3] = HFD-induced diabetic mice: fasting blood glucose and biochemical indexes; settings: 4 weeks; for Blood glucose: 12 h fasted HFD mice; for Plasma FFA / Insulin / Leptin / TC / TG: HFD mice; for Insulin / Leptin: blood; for TC / TG: plasma
# Protocol: The control group and HFD group contained 10% and 45% fat intake, respectively. The HFD mice were subdivided into 6 groups (9 per group) followed by 8-week induction. […] During the experiment, all mice were fasted overnight, and blood samples were collected from the retro-orbital sinus. Following four-week treatment and feeding, the food was removed, and the mice were fasted for 12 h and then sacrificed. Tissue samples required were collected from the mice and weighted. Some of the tissue samples were immediately stored at −80° C. and frozen for subsequent target gene analysis. Plasma samples were collected via centrifugation of whole blood at 1600×g for 15 min at 4° C., followed by plasma separation within 30 min. Some plasma samples obtained were used for TG and TC analysis. The metabolic parameters, including body weight, weight gain, and food intake, were performed as follows. Body weight was daily measured throughout the study. Body weight gain is considered as the difference between one day and the next day. The total weight of food intake was daily measured, followed by weighing the amount of remaining feed after 24 h. The difference indicates the daily food intake.
# One part of the forgoing blood samples collected from the retro-orbital sinus of 12 h fasted mice was immediately used for analysis of glucose levels. The other part was used for analysis of blood TG, TC, free fatty acids, blood insulin, leptin, and adiponectin levels. Blood glucose levels were determined by a glucose analyzer (Model 1500 sidekick glucose analyzer, YSI). Plasma triglycerides (TG), total cholesterol (TC), and free fatty acids (FFA) were determined using commercial kits in accordance with manufacturer's instructions (Triglycerides-E test, Cholesterol-E test, and FFA-C test; Wako Pure Chemical, Osaka, Japan). Insulin and leptin levels were measured by enzyme-linked immunosorbent assay (ELISA) (mouse insulin ELISA kit, Mercodia, Uppsala, Sweden; mouse leptin ELISA kit, Morinaga, Yokohama, Japan).
compound,measurement,setting,value
"C=C(CC[C@@H](C(=O)O)[C@H]1CC[C@@]2(C)C3=CC[C@H]4C(C)(C)[C@@H](O)CC[C@]4(C)C3=CC[C@]12C)C(C)C [TT, dehydroeburicoic acid]",protein expression level of phospho-Akt(Ser473)/total-Akt(Ser473),[1],increase
same,toxicity to C2C12 myoblasts in MTT test,C2C12 myoblasts,non-toxic
same,Liver lipids: Total lipid,"[2]; HF+TT1, 10 mg/kg/day oral",64.4 mg/g
same,Liver lipids: Triacylglycerol,"[2]; HF+TT1, 10 mg/kg/day oral",53 µmol/g
same,Liver lipids: Total lipid,"[2]; HF+TT2, 20 mg/kg/day oral",61.7 mg/g
same,Liver lipids: Triacylglycerol,"[2]; HF+TT2, 20 mg/kg/day oral",48 µmol/g
same,Liver lipids: Total lipid,"[2]; HF+TT3, 40 mg/kg/day oral",57.9 mg/g
same,Liver lipids: Triacylglycerol,"[2]; HF+TT3, 40 mg/kg/day oral",47.1 µmol/g
same,G6-Pase mRNA expression level in liver,"G6-Pase; HF+TT1, 10 mg/kg/day oral",decreased
same,G6-Pase mRNA expression level in liver,"G6-Pase; HF+TT2, 20 mg/kg/day oral",decreased
same,G6-Pase mRNA expression level in liver,"G6-Pase; HF+TT3, 40 mg/kg/day oral",decreased
same,11β-HSD1 mRNA expression level in liver,"11β-HSD1; HF+TT1, 10 mg/kg/day oral",decreased
same,11β-HSD1 mRNA expression level in liver,"11β-HSD1; HF+TT2, 20 mg/kg/day oral",decreased
same,11β-HSD1 mRNA expression level in liver,"11β-HSD1; HF+TT3, 40 mg/kg/day oral",decreased
same,GPAT mRNA expression level in liver,"GPAT; HF+TT1, 10 mg/kg/day oral",decreased
same,GPAT mRNA expression level in liver,"GPAT; HF+TT2, 20 mg/kg/day oral",decreased
same,GPAT mRNA expression level in liver,"GPAT; HF+TT3, 40 mg/kg/day oral",decreased
same,UCP3 mRNA expression level in liver,"UCP3; HF+TT2, 20 mg/kg/day oral",increased
same,UCP3 mRNA expression level in liver,"UCP3; HF+TT3, 40 mg/kg/day oral",increased
same,membrane expression level of GLUT4 in skeletal muscle,"membrane GLUT4; HF+TT1, 10 mg/kg/day oral",significantly increased
same,membrane expression level of GLUT4 in skeletal muscle,"membrane GLUT4; HF+TT2, 20 mg/kg/day oral",significantly increased
same,membrane expression level of GLUT4 in skeletal muscle,"membrane GLUT4; HF+TT3, 40 mg/kg/day oral",significantly increased
same,Blood glucose,"[3]; HF+TT1, 10 mg/kg/day oral",90.44 mg/dL
same,Blood glucose,"[3]; HF+TT2, 20 mg/kg/day oral",82.89 mg/dL
same,Blood glucose,"[3]; HF+TT3, 40 mg/kg/day oral",77.78 mg/dL
same,Plasma FFA,"[3]; HF+TT1, 10 mg/kg/day oral",0.95 meq/L
same,Plasma FFA,"[3]; HF+TT2, 20 mg/kg/day oral",0.87 meq/L
same,Plasma FFA,"[3]; HF+TT3, 40 mg/kg/day oral",0.81 meq/L
same,Insulin,"[3]; HF+TT1, 10 mg/kg/day oral",2.982 µg/L
same,Leptin,"[3]; HF+TT1, 10 mg/kg/day oral",9.827 ng/mL
same,Insulin,"[3]; HF+TT2, 20 mg/kg/day oral",2.625 µg/L
same,Leptin,"[3]; HF+TT2, 20 mg/kg/day oral",8.468 ng/mL
same,Insulin,"[3]; HF+TT3, 40 mg/kg/day oral",2.190 µg/L
same,Leptin,"[3]; HF+TT3, 40 mg/kg/day oral",6.439 ng/mL
same,TC,"[3]; HF+TT1, 10 mg/kg/day oral",120.55 mg/dL
same,TG,"[3]; HF+TT1, 10 mg/kg/day oral",84.85 mg/dL
same,TC,"[3]; HF+TT2, 20 mg/kg/day oral",114.93 mg/dL
same,TG,"[3]; HF+TT2, 20 mg/kg/day oral",83.63 mg/dL
same,TC,"[3]; HF+TT3, 40 mg/kg/day oral",112.46 mg/dL
same,TG,"[3]; HF+TT3, 40 mg/kg/day oral",82.31 mg/dL
